Data: patent US20200181284A1, “EPIGENETIC INHIBITORS FOR SENSITIZING HEMATOLOGIC OR OTHER MALIGNANCIES TO GLUCOCORTICOID THERAPY” (UNIVERSITY OF SOUTHERN CALIFORNIA, priority 2017, published 2020)

Tested on: NALM6 cells
Experiment: Cell death assay (Presto Blue, 72 h) with dex plus inhibitor
Assay type: cell-based, human
Procedure: Cells were plated in CellStar low evaporation lid 96-well round-bottom plate at a density of 100,000 cells/ml. Directly after plating, cells were treated in triplicate with serial dilutions of dexamethasone or vehicle control (0.1% ethanol). After 72 h, cell viability of each well was analyzed in duplicate using the Presto Blue Assay Reagent (Life Technologies). Fluorescence was measured and data were analyzed with Prism6 software.
FIGS. 40A, 40B, 40C, 40D-1, 40D-2, 40D-3, and 40D-4 show Aurora kinase B inhibitors sensitizing NALM6 cells to GC-induced cell death. As shown in FIGS. 40A and 40B, NALM6 cells were treated with the indicated dex concentration in addition to 0.75 μM ZM447439 (FIG. 40A), 16 nM AZD2811 (FIG. 40B), or equivalent volume of vehicle DMSO for 72 h, and cell survival was measured by a fluorescence metabolic assay. In each condition, the value measured with dex was normalized to the fluorescence value measured with ethanol. Percentage of survival is shown as the mean±SEM of 4 independent experiments and p-values for individual dex concentrations were calculated using a paired t-test. *p≤0.05, **p≤0.01, * * *p≤0.001. F-test comparing the two curves: p≤0.001. Insets show the EC50s that were calculated as the concentration at which half the cells remained alive, compare to vehicle controls. Error bars depict the SEM of 4 independent experiments and p-values were calculated to compare AURKB inhibitor treatment to DMSO using a paired t-test ** p≤0.01, * * *p≤0.001. […] The indicated proteins were then examined by immunoblot. As shown in FIGS. 40D-1, 40D-2, 40D-3, and 40D-4, NALM6 cells pre-treated with AZD2811 (16 nM) or DMSO for 24 h, were then treated for 8 h with 100 nM dex or ethanol. mRNA levels for the indicated GR target genes were measured by RT-qPCR and normalized to β-actin mRNA levels.
FIGS. 48A, 48B, 48C, 48D, 48E, and 48F show the effect of AURKB inhibitors on EHMT2 phosphorylation and dex-induced cell death. […] In each condition, the value measured with dex was normalized to the fluorescence value measured with ethanol. Percentage of survival is shown as the mean±SEM of 4 independent experiments and p-values for individual dex concentrations were calculated using a paired t-test. *p≤0.05, **p≤0.01, * * *p≤0.001. F-test comparing the two curves: p≤0.001. EC50s were calculated as the concentration at which half the cells remained alive, compare to vehicle controls. Error bars depict the SEM of 4 independent experiments and p-value was calculated to compare ZM treatment to DMSO using a paired t-test **p≤0.01, * * *p≤0.001. […] EC50s were calculated as the concentration at which half the cells remained alive, compare to vehicle controls. Error bars depict the SEM of 4 independent experiments and p-value was calculated to compare alisertib treatment to DMSO using a paired t-test. […] (E-F) RCH-ACV cells were treated with the indicated dex concentration in addition to 0.75 μM ZM447439 (FIG. 48E), 16 nM AZD2811 (FIG. 48F), or DMSO for 72 h, and cell survival was measured by a fluorescence metabolic assay. In each condition, the value measured with dex was normalized to the fluorescence value measured with ethanol. Percentage of survival is shown as the mean±SEM of 5 individual experiments and the p-value for each dex concentration was calculated using a paired t-test. *p≤0.05, **p≤0.01, * * *p≤0.001. F-test comparing the two curves: p≤0.001.
FIGS. 55A, 55B, and 55C show JIB-04 enhances GC-induced death of B-ALL cell line NALM6.

| SMILES | GC-induced death of NALM6 cells (72 hours with various dex concentrations plus KDM inhibitor) | sensitivity of NALM6 cells to dex-induced apoptosis (0.75 µM ZM447439 stronger effect than 0.625 μM, 72 h) |
| --- | --- | --- |
| Clc1ccc(N/N=C(\c2ccccc2)c2ccccn2)nc1 [JIB-04, 5-chloro-N-[(E)-[phenyl(pyridin-2-yl)methylidene]amino]pyridin-2-amine] | effectively enhanced |  |
| COc1cc2c(Nc3ccc(NC(=O)c4ccccc4)cc3)ncnc2cc1OCCCN1CCOCC1 [ZM447439, N-[4-[[6-methoxy-7-(3-morpholin-4-ylpropoxy)quinazolin-4-yl]amino]phenyl]benzamide] |  | significantly sensitized |
